# Experimental data as given in paper PMC12459314, “Subcutaneous administration of a novel TRPM8 antagonist reverses cold hypersensitivity while attenuating the drop in core body temperature” (British journal of pharmacology, 2024).
# Several values for one entry are separate records, joined by “and”; a condition that tells them apart may be missing. Identical values can stand only once.
# Key:
# [1] = target: T1, human TRPA1 (Homo sapiens, UniProt O75762); test: FlexStation Ca2+ flux assay in HEK293T cells transfected with human TRPA1; type: cell-based
# T1 construct: expressed in transfected cells; host or cells: HEK293T
# T1 sequence (O75762 whole entry): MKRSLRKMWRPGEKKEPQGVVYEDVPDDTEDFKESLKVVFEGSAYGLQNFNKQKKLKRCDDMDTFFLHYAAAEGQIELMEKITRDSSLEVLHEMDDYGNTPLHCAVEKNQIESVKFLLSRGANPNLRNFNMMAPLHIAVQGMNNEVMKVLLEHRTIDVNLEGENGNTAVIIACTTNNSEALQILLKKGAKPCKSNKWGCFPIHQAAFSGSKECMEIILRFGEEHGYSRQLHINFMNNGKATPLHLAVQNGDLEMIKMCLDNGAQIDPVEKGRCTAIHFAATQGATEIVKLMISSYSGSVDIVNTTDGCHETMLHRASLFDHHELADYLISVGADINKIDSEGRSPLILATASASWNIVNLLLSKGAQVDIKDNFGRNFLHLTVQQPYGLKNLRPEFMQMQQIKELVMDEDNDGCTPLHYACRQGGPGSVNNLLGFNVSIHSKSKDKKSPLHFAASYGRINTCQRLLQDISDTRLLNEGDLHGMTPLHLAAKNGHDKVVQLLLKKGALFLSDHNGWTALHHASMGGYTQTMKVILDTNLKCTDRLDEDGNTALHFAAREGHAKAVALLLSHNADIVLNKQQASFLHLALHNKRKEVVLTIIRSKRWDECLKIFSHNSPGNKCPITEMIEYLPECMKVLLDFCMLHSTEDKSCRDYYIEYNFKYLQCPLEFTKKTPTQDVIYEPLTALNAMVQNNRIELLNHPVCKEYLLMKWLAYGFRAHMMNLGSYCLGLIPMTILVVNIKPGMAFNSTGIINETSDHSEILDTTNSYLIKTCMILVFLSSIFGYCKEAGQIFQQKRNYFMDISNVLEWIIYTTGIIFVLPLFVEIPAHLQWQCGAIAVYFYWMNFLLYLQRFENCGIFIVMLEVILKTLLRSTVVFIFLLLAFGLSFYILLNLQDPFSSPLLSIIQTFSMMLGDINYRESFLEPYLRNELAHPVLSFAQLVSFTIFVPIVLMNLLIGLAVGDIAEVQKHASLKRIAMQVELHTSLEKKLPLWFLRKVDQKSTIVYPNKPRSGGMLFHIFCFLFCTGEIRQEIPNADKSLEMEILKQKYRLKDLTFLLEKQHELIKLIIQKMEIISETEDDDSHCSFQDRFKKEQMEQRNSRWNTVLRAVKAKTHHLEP
# Description: The human embryonic kidney cell line (HEK293T, CRL-1573, RRID: CVCL_0045) was purchased from the American Type Culture Collection (Manassas, USA) and was maintained in Dulbecco’s Minimal Essential Medium (DMEM, Cellgro10013CV, Corning, Tewksbury, USA) that was supplemented with 10% fetal bovine serum (Gemini Bio-products), 2-mM L-glutamine (Invitrogen) and 100 U/mL penicillin and streptomycin (Invitrogen) and cultured in an incubator at 37°C, 5% CO2 and 95% humidity. Human TRPV1 and TRPA1 plasmid DNA (gift from D. Julius) were transiently bulk transfected individually into HEK293T cells using the FuGene HD transfection reagent (TFR, Promega, Madison, WI, USA) at a 3:1 ratio (TFR:DNA). Transfected cells were seeded at 10,000 cells per well in a volume of 25 μl into black walled collagen coated 384-well microtiter plates and cultured in an incubator at 37°C, 5% CO2 and 95% humidity for 48 h prior to the initiation of calcium mobilization experiments performed on a FlexStation 3 (Molecular Devices, Sunnyvale, CA, USA) platform equipped with a 16-channel robotic pipettor head and FLIPR tetra pipette tips. At 46 h post transfection, cell monolayers were preloaded with 25 μl of the FLIPR Calcium 6 dye (Molecular Devices) for 2 h in an incubator at 37°C, 5% CO2 and 95% humidity according to the manufacturer’s instructions. The plate was transferred to a FlexStation 3 microplate reader. Relative fluorescence units (RFUs) (Ex. 485 nm, Em 525 nm) were then acquired at 37°C in the kinetic mode. The run time for the agonist (1st) and antagonist (2nd) reads were 60 s each, for a total run time of 120 s, with an interval of 3.1 s between reads in the same well to allow all 16 wells in a column to be read sequentially, and the photomultiplier tube (PMT) level was set at medium, with 6 flashes per read. Baseline Fluo-6 RFUs were acquired for 18 s prior to the addition of compound in both the agonist and antagonist reads. For the first addition agonist read, the volume in the well was 50 μl, the pipette height was set at 40 μl, and 12.5 μl of the test compound was delivered at a speed of 2 μl·s^−1 after the baseline RFU’s acquisition period at 19 s, and the RFUs were acquired for an additional 41 s. For the second addition antagonist read, the volume in the well was 62.5 μl, the pipette height was set at 40 μl, and 12.5 μl of an EC80 agonist concentration was delivered at a speed of 2 μl/s after the baseline RFU’s acquisition period at 19 s, and the RFUs were acquired for an additional 41 s. The FlexStation 3 instrument settings, automated pipetting and data collection were all controlled by the SoftMax Pro software, version 7.1.2.
# To analyse the agonist and antagonist Ca^2+ mobilization Fluo-6 RFU’s kinetic data, the RFU’s readings acquired throughout the 60-s acquisition period for each individual well were divided by the average RFU values acquired during the first 18-s baseline acquisition period from the same well to calculate a fold over baseline (FOB) ratio.
# [2] = target: T2, μ opioid receptor (OPRM1) (Homo sapiens, UniProt P35372); test: Eurofins DiscoverX opioid receptor assays (SAFETYscan; HitHunter cAMP), OPRM1; type: cell-based
# T2 construct: purchased Eurofins DiscoverX (SAFETYscan; gpcrSCAN; HitHunter cAMP XS+)
# T2 sequence (P35372 whole entry): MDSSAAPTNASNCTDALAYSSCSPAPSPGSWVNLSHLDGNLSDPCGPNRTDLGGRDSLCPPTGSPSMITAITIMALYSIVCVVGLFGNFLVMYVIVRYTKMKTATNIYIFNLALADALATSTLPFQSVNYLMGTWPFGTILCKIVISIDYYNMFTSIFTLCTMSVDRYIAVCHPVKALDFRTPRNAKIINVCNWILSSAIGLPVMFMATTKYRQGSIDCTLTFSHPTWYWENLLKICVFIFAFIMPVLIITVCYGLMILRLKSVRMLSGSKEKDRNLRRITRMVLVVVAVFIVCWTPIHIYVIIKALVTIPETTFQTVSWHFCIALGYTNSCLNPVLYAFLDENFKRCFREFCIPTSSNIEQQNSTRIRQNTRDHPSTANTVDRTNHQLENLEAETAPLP
# Description: Assessment of the safety profile of VBJ103 across 78 assays using recombinant human targets was performed with the SAFETYscan E/IC50 ELECT service by Eurofins DiscoverX (San Diego, CA, USA). […] The assays were performed utilizing PathHunter enzyme fragment complementation (EFC) technology, FLIPR®-based cellular screening assays, KINOMEscan kinase binding assays and a variety of enzymatic assays. Further potential functional activity at opioid receptors was performed in the gpcrSCAN service by Eurofins DiscoverX. Hit Hunter® cAMP assays were carried out using Enzyme Fragment Complementation (EFC) with β-galactosidase (β-Gal) as the functional reporter.
# Assessment of potential positive allosteric modulator (PAM) activity at μ, δ and κ opioid receptors was performed with the DiscoverX HitHunter cAMP XS+ assay by Eurofins DiscoverX (San Diego, CA, USA).
# [3] = Core body temperature by radiotelemetry after i.c.v. administration; type: in vivo, mouse; conditions: 306 nmol per 1 μL i.c.v.
# Description: A second set of male C57Bl6J mice (Jackson Laboratories, n = 8) was implanted with telemetry as described above and a 26-gauge brain cannula (Plastics One) targeted at the lateral ventricle using coordinates relative to Bregma: 0.3 mm caudal, 1.0 mm lateral, 3.0 mm ventral. This second procedure was also performed under isoflurane anesthesia. The brain cannula was secured to the skull with two screws and dental cement. Animals were treated with buprenex (0.05 mg·kg^−1, s.c. every 8 h for 48 h) and enrofloxacin (2 mg·kg^−1, s.c.), singly housed and handled daily as described above. A single i.c.v. injection was performed every other day in a randomized order and included: (1) Galanin-like peptide (3 nmol/1 μL), (2) VBJ103 (306 nmol/1 μL) and (3) VBJ103 vehicle (1 μL). Galanin-like peptide produced a decrease in body temperature in five of eight mice. Therefore, body temperature data in response to VBJ103 and vehicle are presented in these five mice. These studies were carried out with a single dose of VBJ103 (306 nmol/1 μL or ~4 mg·kg^−1), which was the highest dose achievable due to constraints of the injection volume and the solubility of VBJ103.
# [4] = system: 78 recombinant human targets; test: SAFETYscan E/IC50 ELECT panel of 78 assays; conditions: 10 concentrations, 0.005 to 100 μM; single experiment
# Description: Assessment of the safety profile of VBJ103 across 78 assays using recombinant human targets was performed with the SAFETYscan E/IC50 ELECT service by Eurofins DiscoverX (San Diego, CA, USA). Data represent a single experiment and therefore should be considered preliminary. The assays were performed utilizing PathHunter enzyme fragment complementation (EFC) technology, FLIPR®-based cellular screening assays, KINOMEscan kinase binding assays and a variety of enzymatic assays. Further potential functional activity at opioid receptors was performed in the gpcrSCAN service by Eurofins DiscoverX. Hit Hunter® cAMP assays were carried out using Enzyme Fragment Complementation (EFC) with β-galactosidase (β-Gal) as the functional reporter.
# [5] = system: human TRPM8; set-up: method as in Journigan et al., 2020; conditions: ref Journigan et al., 2020, cited from earlier work
# [6] = system: TRPM8; set-up: method as in Journigan et al., 2020; conditions: 30 mg·kg−1, s.c.; ref Journigan et al., 2020; cited from earlier work
smiles,measurement,setting,value
"O=C(NC1CCC2(CCCC2)CC1)c1ccc(-c2ccccc2)cc1 [VBJ103, N-(Spiro[4.5]decan-8-yl)-[1,1′-biphenyl]-4-carboxamide]",EC50,"[1]; Figure 1g experiment, without HC-030031",960 nM and 955 nM
same,antagonist activity at TRPA1,[1]; against an EC80 concentration (10 μM) of AITC,no detectable antagonist activity
same,EC50,[1]; agonist read,1040 nM and > 1000 nM
same,shift in TRPA1 EC50,[1]; with versus without HC-030031 (10 μM),3.2 fold
same,Emax,"[2]; OPRM1, Positive Allosteric Modulator format, read-out: Max Response, cAMP",14.5%
same,EC50,"[2]; read-out: RC50 (EC50), cAMP",> 100 µM
same,activity at μ opioid receptor,[2]; safety panel,no activity
same,change in CBT compared to vehicle,[3],did not significantly (P > 0.05) alter
same,effects across the safety panel,[4],only dose-dependent effect detected
same,IC50,[5]; against menthol-stimulated currents,64 ± 2 nM
same,selectivity for human TRPM8 versus TRPA1 and TRPV1,[5]; heterologously expressed channels,~ 10 fold
same,icilin-induced wet dog shaking (WDS) behaviour,[6],suppresses
